Test results from patent US20120196334A1, “LIGF-TYPE ENZYMES FOR BIOCONVERSION OF LIGNIN-DERIVED COMPOUNDS” (priority 2010, published 2012).

tested on: not listed separately; test: in vitro biochemical assay for beta-etherase activity on fluorescent substrate MUAV (4MU formation); conditions: E. coli cell extracts expressing the protein; 0.1 mM MUAV substrate
Description: The model substrate synthesis 150 for use in the biochemical screening for selective activity can be outsourced through a contract research organization (CRO). The enzyme discovery effort can initially be focused on identifying potential beta-etherase candidate genes identified through bioinformatic methods. […] The fluorescent substrate α-O-(β-methylumbelliferyl) acetovanillone (MUAV), for example, can be used in in vitro assays to identify beta-etherase function (Acme Biosciences, Mt. View, Calif.). The formation of 4 methylumbelliferone (4MU) upon hydrolysis of the aryl ether bond can be monitored by fluorescence, for example, at λex=365 nm and λem=450 nm (or 460 nm).
The enzyme screening 155 is done to identify novel etherases 160. […] Expression of the beta-etherase genes can be done in 5 ml or 25 ml samples of the recombinant E. coli strains in LB medium using induction with IPTG. Following induction, and cell harvest, cell pellets can be lysed using the BPER (Invitrogen) cell lysis system. […] The formation of 4 methylumbelliferone (4MU) upon hydrolysis of the aryl ether bond in MUAV can be monitored by fluorescence at λex=365 nm and λem=460 nm, and can provide quantitative measurement of beta-etherase function. Cell extracts of E. coli transformed with the S. paucimobilis ligE and ligF genes can be the assay positive controls. Test or unknown samples can include, for example, E. coli strains expressing putative beta-etherase genes from N. aromaticovorans.
This example describes a method for gene expression in E. coli, as well as beta-etherase biochemical assays. Expression of known and putative beta-etherase genes was performed using 5 ml cultures of the recombinant E. coli strains described herein in Luria Broth medium by induction of gene expression using isopropylthiogalactoside (IPTG) to a final concentration of 0.1 mM. Following induction, and cell harvest, the cells were disrupted using either sonication or the BPER (Invitrogen) cell lysis system.
In vitro reactions were performed in a total volume of 200 ul and contained: 25 mM TrisHCl pH 7.5; 0.5 mM dithiothreitol; 1 mM glutathione; 0.05 mM or 0.1 mM MUAV; 10 ul of clarified cell extract used to initiate the reactions. Following incubation for 2.5 hours at room temperature, a 50 ul sample of the reactions was terminated using 150 uL of 300 mM glycine/NaOH buffer pH 9. The formation of 4 methylumbelliferone (4MU) upon hydrolysis of the aryl ether bond was monitored by the increase in fluorescence at λex=360 nm and λem=450 nm using a Spectramax UV/visible/fluorescent spectrophotometer.
The total protein concentrations of the cell lysates were determined using the BCA reagent system for protein quantification (Pierce).
Induction might be also performed using IPTG concentrations in the range of 0.01-1 mM. Cell disruption might be also performed using toluene permeabilization, French, pressure techniques, or using multiple freeze/thaw cycles in conjunction with lysozyme. Assay conditions might be varied to include TrisHCl at 10-150 mM concentrations and in the pH range of 6.5-8.5; 0-2 mM dithiothreitol; 0.05-2 mM glutathione; 0.01-5 mM MUAV substrate; 22-42° C. reaction temperatures. The biochemical assay might be performed as a fixed time point assay with reaction times ranging from 5 minutes-12 hours, or performed continuously without quenching with glycine/NaOH buffer to extract enzyme kinetic parameters.

Row | Molecule | total activity (beta-etherase)
1 | LigF2: Novosphingobium aromaticivorans putative beta-etherase, glutathione S-transferase-like polypeptide LigF-2 (protein) MALKYYHAEPLANSLKSMVPLKEKGLAYESIYVDLHKFEQHQPWFTAINPEGQVPVLDHDGTIITHTTVINEYLEDAFPDAQPADAPLRPRDPVGAARMRYWNKFIDEHVMNYVSMHGWHRMVGVIARNIASGDFEKLLESIPLPDQRKKWATARSGFSEADLANATAKIEYALDKVEKQLGETKWLAGDTYTLADINFYSHCGAMVERMFPEMEVARRAPRLCEWRDRVAARPAVAEALKSEDRTAPGLRVWSGEVR | 1206 rfu/ug
2 | LigF: Sphingomonas paucimobilis beta-etherase LigF, positive control polypeptide (protein) MTLKLYSFGPGANSLKPLATLYEKGLEFEQVFVDPSKFEQHSDWFKKINPRGQVPALWHDGKVVTESTVICEYLEDVFPESGNSLRPADPFKRAEMRVWTKWVDEYFCWCVSTIGWAFGIKAIAQKMSDEEFEEHINKNVPIPEQQLKWRRARNGFPQEMLDEEFRKVGVSVARLEETLSKQDYLVDTGYSLADICNFAIANGLQRPGGFFGDYVNQEKTPGLCAWLDRINARPAIKEMFEKSKREDLLKRQNEKVA | 558 rfu/ug
3 | ligE: Sphingomonas paucimobilis beta-etherase LigE, positive control polypeptide (protein) MARNNTITLYDLQLESGCTISPYVWRTKYALKHKGFDIDIVPGGFTGILERTGGRSERVPVIVDDGEWVLDSWVIAEYLDEKYPDRPMLFEGPTQKNLMKFLDNWLWSTAVGPWFRCYILDYHDLSLPQDRDYVRWSREQWFLGGQRLEDVQAGREDRLPLVPPTLEPFRRILAETKWLGGDQPNFADYSALAVFLWTASVARTPPLTEDDPLRDWLDRGFDLFDGLGRHPGMNPLFGLKLREGDPEPFVRQTGPAGAGGQALNKGPQTTKMPPRVAEKAD | 7 rfu/ug
4 | ligE1: Novosphingobium aromaticivorans putative beta-etherase, glutathione S-transferase-like polypeptide, GenBank ABD26841.1, expressed in E. coli (protein) MAANNTITFYDLALSTGATISPFVWATKYALKHKGFDLDVVPGGFTGILERTGGKTERLPAIVDDGEFVLDSWGIVEYLDAKYPDRPVLIPHESVAATLKALDNWFWNAAVGPWMFCFCQDYRDLSLPQDHEYVTHSREKMLGRKLEEVQAGREERLPKISAALEPLRAALAQHQWLGGSSPNYADYRIMGGILFTASVCKTPVLANDDPLRDWIERCLDLYGGLGRHPGLFPLFGLEQREGDPDLFNRAAGQGGIYKRNTGPESTRAETQRITEGMKK | 529 rfu/ug

same assay, conditions: MUAV substrate; compared with S. paucimobilis LigF

Row | Molecule | efficiency relative to S. paucimobilis LigF protein
5 | LigF2: Novosphingobium aromaticivorans putative beta-etherase, glutathione S-transferase-like polypeptide LigF-2 (protein) MALKYYHAEPLANSLKSMVPLKEKGLAYESIYVDLHKFEQHQPWFTAINPEGQVPVLDHDGTIITHTTVINEYLEDAFPDAQPADAPLRPRDPVGAARMRYWNKFIDEHVMNYVSMHGWHRMVGVIARNIASGDFEKLLESIPLPDQRKKWATARSGFSEADLANATAKIEYALDKVEKQLGETKWLAGDTYTLADINFYSHCGAMVERMFPEMEVARRAPRLCEWRDRVAARPAVAEALKSEDRTAPGLRVWSGEVR | approximately 2 fold

same assay, conditions: MUAV substrate; compared with S. paucimobilis ligE

Row | Molecule | efficiency relative to S. paucimobilis ligE beta-etherase
6 | ligE1: Novosphingobium aromaticivorans putative beta-etherase, glutathione S-transferase-like polypeptide, GenBank ABD26841.1, expressed in E. coli (protein) MAANNTITFYDLALSTGATISPFVWATKYALKHKGFDLDVVPGGFTGILERTGGKTERLPAIVDDGEFVLDSWGIVEYLDAKYPDRPVLIPHESVAATLKALDNWFWNAAVGPWMFCFCQDYRDLSLPQDHEYVTHSREKMLGRKLEEVQAGREERLPKISAALEPLRAALAQHQWLGGSSPNYADYRIMGGILFTASVCKTPVLANDDPLRDWIERCLDLYGGLGRHPGLFPLFGLEQREGDPDLFNRAAGQGGIYKRNTGPESTRAETQRITEGMKK | approximately 75 fold

same assay, conditions: recombinant polypeptide expressed in E. coli

Row | Molecule | beta-etherase activity on the MUAV substrate (in words)
7 | ABD26530.1: Novosphingobium aromaticivorans putative beta-etherase polypeptide LigF-1 (protein) MVIPLGEDNTIMLKLYSFGPAANSMKPLLTVFEKGLDVEKHRLDPAKFEHHTDWFKAINPRGQVPALVDGDKVVTESTVICEYLEDEYPTEVALRPADSFGKAQMRIWTKWVDEYFCWCVSTIGWHRYVGNMVKSLSDAEFEEKVKAIPVIEQQVKWRRAREGFPQDMLDEEMRKIAYSVRKLDDHLADHEWLVPGQYTLADICNFAIANGMQFGFAELVNKQDTPHLVRWIEQINERPAVKQMFAQVELEKLGPRE | beta-etherase activity
8 | LigF2: Novosphingobium aromaticivorans putative beta-etherase, glutathione S-transferase-like polypeptide LigF-2 (protein) MALKYYHAEPLANSLKSMVPLKEKGLAYESIYVDLHKFEQHQPWFTAINPEGQVPVLDHDGTIITHTTVINEYLEDAFPDAQPADAPLRPRDPVGAARMRYWNKFIDEHVMNYVSMHGWHRMVGVIARNIASGDFEKLLESIPLPDQRKKWATARSGFSEADLANATAKIEYALDKVEKQLGETKWLAGDTYTLADINFYSHCGAMVERMFPEMEVARRAPRLCEWRDRVAARPAVAEALKSEDRTAPGLRVWSGEVR | beta-etherase activity
9 | ligE1: Novosphingobium aromaticivorans putative beta-etherase, glutathione S-transferase-like polypeptide, GenBank ABD26841.1, expressed in E. coli (protein) MAANNTITFYDLALSTGATISPFVWATKYALKHKGFDLDVVPGGFTGILERTGGKTERLPAIVDDGEFVLDSWGIVEYLDAKYPDRPVLIPHESVAATLKALDNWFWNAAVGPWMFCFCQDYRDLSLPQDHEYVTHSREKMLGRKLEEVQAGREERLPKISAALEPLRAALAQHQWLGGSSPNYADYRIMGGILFTASVCKTPVLANDDPLRDWIERCLDLYGGLGRHPGLFPLFGLEQREGDPDLFNRAAGQGGIYKRNTGPESTRAETQRITEGMKK | beta-etherase activity
10 | ABD27309.1: Novosphingobium aromaticivorans putative beta-etherase polypeptide LigF-3 (protein) MDEVSLYHWEPNANSGKPMLALMEKGVPFSSHYIDMLQFDQHKPEYLAINPQGTIPAMTHNGQVLTESTAIMEYVNDRFDGPDLMPADAQDRWRVRWWMKFMDQWLGPSFSMIGWSVFVGPMVRQRDPAELAAAIDRIPLPERRTAWRKAINGDFSESEMAESRRRVGLGIAKLEEELGKRPYVGSNQYSLADINIFNSTYSLPISQPDLAGKDRTPNIMRWLKRVYTREAVKKTWAMGKTDLAHRYGLIMAEIEG | beta-etherase activity

tested on: Escherichia coli; test: not given; conditions: benzaldehyde derivatives; stated as demonstrated; cited from earlier work

Row | Molecule | antibacterial activity against Escherichia coli
11 | O=Cc1ccc(O)c(O)c1O [2,3,4-trihydroxybenzaldehyde] | antibacterial activity
12 | O=Cc1cccc(O)c1O [2,3-dihydroxybenzaldehyde] | antibacterial activity
13 | O=Cc1c(O)cc(O)cc1O [2,4,6-trihydroxybenzaldehyde] | antibacterial activity
14 | O=Cc1ccccc1O [2-hydroxybenzaldehyde] | antibacterial activity
15 | COc1cc(O)cc(OC)c1C=O [4-hydroxy-2,6-dimethoxybenzaldehyde] | antibacterial activity
16 | O=Cc1ccc(O)cc1O [2,4-dihydroxybenzaldehyde] | antibacterial activity
17 | COc1cccc(C=O)c1O [2-hydroxy-3-methoxybenzaldehyde] | antibacterial activity
18 | O=Cc1cc(O)ccc1O [2,5-dihydroxybenzaldehyde] | antibacterial activity
19 | COc1ccc(O)c(C=O)c1 [2-hydroxy-5-methoxybenzaldehyde] | antibacterial activity

same assay, conditions: stated as known; cited from earlier work

Row | Molecule | antimicrobial activity against Escherichia coli
20 | COc1cc(C=O)cc(OC)c1O [syringaldehyde] | antimicrobial activity
21 | O=Cc1ccc(CO)o1 [5-hydroxymethylfurfural] | antimicrobial activity
22 | O=Cc1ccco1 [furfural] | antimicrobial activity
23 | COc1cc(C=O)ccc1O [vanillin] | antimicrobial activity
24 | O=Cc1ccc(O)cc1 [4-hydroxybenzaldehyde] | antimicrobial activity

tested on: Saccharomyces cerevisiae; test: not given; conditions: stated as background; cited from earlier work

Row | Molecule | antifungal activities against the yeast Saccharomyces cerevisiae
25 | COc1ccc(C=O)cc1OC [Veratraldehyde] | significant antifungal activities
26 | COc1cc(CCC(C)=O)ccc1O [vanillylacetone] | significant antifungal activities
27 | O=C(O)/C=C/c1ccc(O)cc1 [p-coumaric acid] | significant antifungal activities
28 | O=C(O)/C=C/c1ccccc1O [o-coumaric acid] | significant antifungal activities
29 | O=C(O)/C=C/c1cccc(O)c1 [m-coumaric acid] | significant antifungal activities
30 | O=C(O)C=Cc1ccccc1 [cinnamic acid] | significant antifungal activities
31 | COc1cc(C(=O)O)ccc1O [vanillic acid] | significant antifungal activities
